Measurements: publication PMC12419922, “Myristoylated Cathelicidin-DM Fused With ANG1-7: A Novel Self-Assembling Antimicrobial Peptide for the Treatment and Mechanism of Diabetic Infected Wounds” (Journal of Diabetes Research, 2025)
Where no end group is shown, it is not given here. The star is where a group is joined. Myristoyl = CCCCCCCCCCCCCC(=O)*

Assays:
[1] = test system: HUVECs; test: Tube formation (angiogenesis) on Matrigel; assay type: cell-based, human; conditions: 9 h, n = 3
Protocol: The formation of vascular structure was observed by matrix glue experiment, and the angiogenesis ability was evaluated in Matrigel stent (Corning, New York). After treatment in each group, 300 μL (2 × 10^5 cells/mL) HUVECs were digested and inoculated into a 24-well plate containing Matrigel scaffold. After 9 h, the formation image of the tube was photographed.

[2] = test system: human skin fibroblasts (HSFs); conditions: 1.56 μg/mL (lowest concentration), 24 h, CCK8
Protocol: (§1) Human keratinocyte cells (HaCaTs) and human skin fibroblasts (HSFs) were seeded in 96-well plates at a density of 5000 cells per well. After overnight culture, different concentrations of AMP MYR-DM-ANG1-7 were added to the cells, and then, the cells were cultured for 24 h. Untreated cells were supplemented with fresh culture medium as the control group. Subsequently, 10% by volume of CCK8 solution (5 mg/mL) was added to each well.
(§2) After incubation for 1 h, the absorbance in each well was measured at 450 nm using an M200 full-band microplate reader (Infinite M200 PRO, Switzerland). Finally, the cell viability was calculated relative to the control groups.

[3] = test system: Human keratinocyte cells (HaCaTs); conditions: 50 μg/mL (highest concentration), 24 h, CCK8
Protocol: as §1, §2

[4] = test system: HUVECs; test: ELISA of IL-6 and TNF-α in culture supernatant; assay type: cell-based, human; conditions: HG + LPS 24 h
Protocol: The HUVECs were seeded at 1 × 10^4 cells/well and cultured in 96-well plates. Following the indicated treatments, the levels of IL-6 and TNF-α in culture media were analyzed using ELISA according to the method of the kit. The experiments were repeated three times.

[5] = test system: HUVECs; test: Scratch wound healing assay; assay type: cell-based, human; conditions: HG + LPS, 20 μg/mL, n = 3
Protocol: In a 6-well plate, HUVECs (2 × 10^5 cells/well) were seeded. The cells were starved in serum-free medium for 12 h, and then, a scratch was made vertically using a 200-μL pipette tip. […]

[6] = test system: HUVECs; test: Mitochondrial membrane potential, JC-1; assay type: cell-based, human; conditions: HG + LPS, 20 μg/mL, p < 0.0001
Protocol: JC-1 is a widely used and ideal fluorescent probe for detecting MMP. When the MMP is high, JC-1 accumulates in the matrix of the mitochondria, forming J-aggregates that emit red fluorescence. When the MMP is low, JC-1 cannot accumulate in the mitochondrial matrix, remaining as a monomer that emits green fluorescence. HUVECs were cultured in well plates containing DMEM at a density of 1 × 10^6 cells/well. Following the indicated treatments, the slides were washed three times with PBS and the cells were incubated with 1 mg/l JC-1 at 37°C for 30 min in the incubator, washed briefly three times with PBS. The fluorescence was measured over the entire field of vision using a fluorescent microscope connected to an inverted fluorescence microscope (ThermoFish EVOS, United States). The experiment was repeated three times.

[7] = test system: PI3K/AKT/eNOS signaling pathway, MasR in HUVECs; test: Western blot of PI3K/AKT/eNOS signaling pathway and MasR; assay type: cell-based, human
Protocol: After the specified treatments, HUVECs were harvested using a cell scraper and lysed in cell lysis buffer (Wuhan Boster Biological Engineering Co., Ltd.) for 30 min at 4°C. Total protein was quantified using a BCA protein assay kit. Lysate (20 μg) from each sample was separated by 10% sodium dodecyl sulfate–polyacrylamide gel electrophoresis (SDS-PAGE) and then transferred to a polyvinylidene fluoride (PVDF) membrane. The membrane was blocked with a fresh blocking buffer containing 5% skim milk in Tris-buffered saline with 0.1% Tween 20 (TBS-T) for 2 h at room temperature and then incubated with primary antibodies against AKT (1:1000 dilution, #4691, Cell Signaling Technology), p-AKT (1:2000 dilution, #4060, Cell Signaling Technology), PI3K (1:1000 dilution, ab191606, Abcam), p-PI3K (1:1000 dilution, ab278545, Abcam), eNOS (1:1000 dilution, #32027, Cell Signaling Technology), p-eNOS (1:1000 dilution, ab215717, Abcam), and Mas (1:1000 dilution, #85003-1-RR, Proteintech) overnight at 4°C with shaking. The membrane was washed with TBS-T for 15 min and then incubated with horseradish peroxidase (HRP)–conjugated goat anti-rabbit secondary antibody (Wuhan Sanying Biotechnology Co., Ltd.) at a 1:2000 dilution in TBS-T and 3% skim milk for 90 min at room temperature. The membrane was washed three times with TBS-T, each for 15 min, and the immune reaction signals were detected using an ECL detection method. Protein bands were detected using a chemiluminescent gel imaging system (Bio-Rad Lab, China). Protein expression was quantitatively analyzed using ImageJ software (National Institutes of Health, Bethesda, MD, United States), and the experiment was repeated three times.

[8] = test system: S. aureus biofilms; test: Antibiofilm activity, crystal violet staining and colony counting; assay type: cell-based, Staphylococcus aureus; conditions: different concentrations, 37°C, 24 h, crystal violet OD 595 nm and viable count
Protocol: E. coli (ATCC 25922) and S. aureus (ATCC 25923) were cultured overnight in MHB medium at 37°C. The bacterial suspension was diluted to 100 times and added to a 12-well plate (500 μL/well). Each peptide with a different concentration was added to the corresponding well plate and incubated at 37°C for 24 h. After incubation, 100 μL of culture supernatant was discarded. The biofilm was fixed with 100 μL of 100% methanol for 15 min, then air-dried, then dyed with 0.1% crystal violet (CV) for 30 mins, and washed with distilled water three times. After adding 200 μL of 95% ethanol, the inhibition rate of the biofilm was calculated by measuring the OD value at 595 nm with Infinite M200 PRO, Switzerland. After ultrasonic treatment, the biofilm was fully dispersed into single cells, and the cell suspension was diluted to a suitable concentration for colony counting. All experiments were repeated three times.
The formation of bacterial biofilms in the wounds of DFU patients is the main cause of bacterial resistance. By measuring the antibiofilm ability, the inhibitory and clearing effects of drugs on biofilms can be assessed. In the case of preventing biofilm formation, E. coli and S. aureus were cultured in LB nutrient medium with different concentrations of the novel AMP MYR-DM-ANG1-7 in 24-well plates at 37°C and incubate for 24 h. […]

## Myristoyl-SSRRKPCKGWLCKLKLRGGYTLIGSATNLNRPTYVRAGGGDRVYIHP (cysteines drawn unpaired) [MYR-DM-ANG1-7]
[1]; HG + LPS (HG + LPS group 0.3 times)
  main connections of formed blood vessels: 1.9 times
[1]; HG + LPS (HG + LPS group 0.4 times)
  length of formed blood vessels: 1.7 times
[2]
  cell survival rate, HSF: 95.16%
[3]
  cell survival rate, HaCaT: 92.4%
[4]
  TNF-α level: alleviate the decrease
[5]; after 12 h
  wound healing rate (scratch assay): 61.6%
[5]; at 48 h
  healing area (scratch assay): 100%
[6]
  mitochondrial membrane potential (JC-1): increase
[7]; after HG treatment and drug treatment
  expression of membrane receptor MasR: significantly increased
[7]; pretreatment then HG + LPS
  phosphorylation level of eNOS: increased
[7]; pretreatment then HG + LPS (HG + LPS 0.4-fold), n = 3
  phosphorylation level of AKT (p-AKT/total AKT): 0.94 fold
[7]; pretreatment then HG + LPS (HG + LPS 0.8-fold), n = 3
  phosphorylation level of PI3K (p-PI3K/total PI3K): 1.28 fold
[8]
  formation of S. aureus biofilms: effectively inhibit
